In publication PMC12137546, “Development of a microarray based telomerase binding assay reveals unusual binding of a cytochalasin derivative” (Scientific Reports, 2025):
pEC50, pKd: −log10 of the molar value.

What was measured:
[1] = target: T1, telomerase reverse transcriptase (TERT) (Homo sapiens, UniProt O14746); experiment: microarray displacement of Cy5 primer cocktail from spotted TERT and lysates; TRAP inhibition in lysate at […]; type: binding; set-up: recombinant His-tagged full-length human TERT (pET28aTERT, E. coli) and cell lysates
T1 sequence (O14746 whole entry): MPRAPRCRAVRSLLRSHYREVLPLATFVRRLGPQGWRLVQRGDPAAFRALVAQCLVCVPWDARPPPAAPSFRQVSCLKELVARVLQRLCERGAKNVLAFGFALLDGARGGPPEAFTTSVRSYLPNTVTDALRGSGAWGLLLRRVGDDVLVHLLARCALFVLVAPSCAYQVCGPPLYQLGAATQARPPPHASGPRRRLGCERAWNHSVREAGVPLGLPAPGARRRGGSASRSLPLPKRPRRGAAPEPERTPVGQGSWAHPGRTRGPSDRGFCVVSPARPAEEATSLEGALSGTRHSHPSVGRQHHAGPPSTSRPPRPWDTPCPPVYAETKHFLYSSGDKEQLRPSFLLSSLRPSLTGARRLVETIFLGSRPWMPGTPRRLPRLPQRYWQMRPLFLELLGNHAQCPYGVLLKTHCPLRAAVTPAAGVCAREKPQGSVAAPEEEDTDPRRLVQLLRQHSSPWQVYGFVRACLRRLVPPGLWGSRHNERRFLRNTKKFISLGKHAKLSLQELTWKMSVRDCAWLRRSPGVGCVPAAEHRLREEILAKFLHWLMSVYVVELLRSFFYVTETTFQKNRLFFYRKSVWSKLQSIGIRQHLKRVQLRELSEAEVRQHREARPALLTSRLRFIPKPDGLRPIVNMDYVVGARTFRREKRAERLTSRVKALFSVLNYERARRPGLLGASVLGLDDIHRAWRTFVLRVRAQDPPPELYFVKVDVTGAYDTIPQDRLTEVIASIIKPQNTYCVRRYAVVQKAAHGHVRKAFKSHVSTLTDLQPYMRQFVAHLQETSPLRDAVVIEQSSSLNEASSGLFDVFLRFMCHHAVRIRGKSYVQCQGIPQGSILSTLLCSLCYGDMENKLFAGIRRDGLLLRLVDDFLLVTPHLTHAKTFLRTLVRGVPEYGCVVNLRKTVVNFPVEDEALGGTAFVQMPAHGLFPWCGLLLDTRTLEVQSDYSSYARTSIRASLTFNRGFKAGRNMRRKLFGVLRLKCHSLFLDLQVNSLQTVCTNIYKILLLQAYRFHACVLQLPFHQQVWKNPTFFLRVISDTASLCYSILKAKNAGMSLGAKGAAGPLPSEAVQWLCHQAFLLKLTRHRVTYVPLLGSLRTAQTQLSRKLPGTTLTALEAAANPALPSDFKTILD

[2] = target: T1, telomerase reverse transcriptase (TERT); experiment: microscale thermophoresis; also microarray displacement of Cy5 primer cocktail (EC50 […]) and TRAP inhibition in cell lysate; type: binding; set-up: recombinant His-tagged full-length human TERT (pET28aTERT, E. coli, urea/N-lauroylsarcosine solubilized, Ni-IMAC)

Structure (SMILES)	pEC50 [1]	pKd [2]
C=C1[C@@H](C)C2[C@H](Cc3ccc(I)cc3)NC(=O)[C@@]23C(/C=C/C[C@H](C)C[C@@](C)(O)/C=C/[C@H]3OC(C)=O)[C@@H]1O (some centres unmarked) [compound 7, 4’-iodo cytochalasin H]	5.36 to 5.56	–
O=C(O[C@@H]1Cc2c(O)cc(O)cc2O[C@@H]1c1cc(O)c(O)c(O)c1)c1cc(O)c(O)c(O)c1 [EGCG, epigallocatechin-3-gallate]	–	~4.59
